Measured values taken from publication PMC9563075, “Identification and Structure–Activity Relationship of Recovered Phenolics with Antioxidant and Antihyperglycemic Potential from Sugarcane Molasses Vinasse” (Foods, 2022).
“And” between values parts separate entries of the source, which are not always exact repeats. Equal values may be shown once.

Key:
[1] = Oxygen radical scavenging capacity (ORAC) assay; details: for ORAC value: Trolox equivalents per 1 g of compound, mean ± SD, n = 3; for decrease of ORAC antioxidant activity relative to 4-hydroxybenzoic acid: additional methoxy group(s) in ortho-positions of the p-OH
Description: The antioxidant activity of compounds was measured using the ORAC assay according to a previous method. Briefly, 150 μL 8.16 × 10^−5 mM fluorescein working solution was added to the inner wells of a 96-well microplate. Then the plate was incubated at 37 °C for 10 min, after which another 25 μL diluted antioxidants were added using Trolox as standard and 75 mM buffer solution as blank. The plate was shaken every 3 min during the incubation. […] All samples were analyzed in triplicate at three different dilutions. ORAC values were expressed as mean micromoles of Trolox equivalents (TE) per 1 g of the compound.

[2] = target: α-glucosidase (EC3.2.1.20); assay: α-Glucosidase inhibition assay; format: biochemical; details: mean ± SD; samples in 30% (v/v) ethanol-PBS
Description: The inhibition assay with the α-glucosidase was carried out as a previously described protocol. […] The incubated system contained 50 μL of samples and 100 μL of the α-glucosidase solution was added to a 96-well plate at 37 °C for 10 min. Then, 50 μL of the substrate pNP-α-G was added to start the reaction at 37 °C. After 10 min, 100 μL of 1 M Na2CO3 solution was added to inactivate α-glucosidase and halt the generation of substrates, and the absorbance was read at 405 nm with the micro-plate reader (SpectraMax 190, Molecular Devices Co., Sunnyvale, CA, USA). The percentage of inhibition and the values of IC50 of samples were calculated by the same equation as α-amylase inhibition assay.

α-amylase (EC3.2.1.1) = assay: α-Amylase inhibition assay; format: biochemical; details: for IC50: mean ± SD, samples in 30% (v/v) ethanol-PBS
Description: The inhibition assay with the α-amylase was performed as a previously reported protocol with a slight modification. […] Then, 1 U mL^−1 α-amylase (EC3.2.1.1), soluble starch solution (1%, w/v) and 3,5-dinitrosalicylic acid (DNS) were all dissolved in PBS (50 mM, pH 6.9). The mixed system contained a 500 μL sample or blank solution and 500 μL α-amylase incubated at 37 °C for 10 min, followed by the addition of 500 μL of preheated starch solution into the mixed incubated system to initiate the enzymatic hydrolysis reaction (37 °C, 10 min). Finally, 1 mL of DNS was added to halt the reaction, and the mixture was then allowed to sit in boiling water for 5 min. The absorbance was measured at 540 nm using a microplate reader (SpectraMax 190, Molecular Devices Co., Sunnyvale, CA, USA) at room temperature. The inhibition rate of the samples was calculated using the following equation: Inhibition rate (%)=[1−(Asample−Asample blank)/(Acontrol−Acontrol blank)]×100 where Asample, Asample blank, Acontrol, Acontrol blank represent the absorbance of the presence and absence of enzymes in sample solutions, and the absorbance of the presence and absence of enzymes in buffer solutions. The half-maximal inhibitory concentration (IC50) of each compound was obtained by regression analysis.

[3] = Dissolution in 30% (v/v) ethanol-water solvent system; format: physicochemical; details: high-concentration
HepG2 cells = assay: Cellular antioxidant activity (CAA) assay; format: cell-based; details: for CAA value: converted from EC50, quercetin equivalents; for EC50: Homo sapiens, HepG2, HepG2 cells
Description: HepG2 cells (ATCC Co., Manassas, VA, USA) were incubated in DMEM with 1% penicillin-streptomycin and 10% FBS and maintained at 37 °C with 5% CO2. The modified methylene blue assay was used to determine cytotoxicity.
The CAA assay was performed, according to Wolfe et al., with slight modification. In brief, 6 × 10^4 HepG2 cells were placed in each well of a black-walled 96-microwell plate. 200 μL of PBS was added to the edge of the plate to prevent the edge effect. After adherence, cells were treated with a range of concentrations of benzoic acid derivatives and a standard (quercetin) containing 50 μM DCFH-DA for 1 h under the same culture condition. After removing the supernatant medium, the cells were washed with or without PBS. Then promptly added 600 μM ABAP into each well except blank groups before reading at 485 nm excitation and 538 nm emission using a multifunctional microplate detector (Molecular Devices, Sunnyvale, CA, USA). The fluorescence values were recorded every 5 min for 1 h. The CAA values were obtained by converting the EC50 values and presented as μmol quercetin equivalents (QE)/100 μmol.

IC50 [2] | IC50 (α-amylase (EC3.2.1.1)) | Structure (SMILES) | ORAC value [1] | also measured
– | – | COc1cc(C(=O)Cl)c(O)c(O)c1O [Compound 1, 2,3,4-trihydroxy-5-methoxy benzoyl chloride] | 4094.6 ± 32.1 μmol TE/g | –
26.1 ± 0.67 mM | 40.5 ± 0.44 mM | COc1ccc(O)c(C(=O)O)c1 [Compound 2, 2-hydroxy-5-methoxybenzoic acid] | 32648.1 ± 2181.8 μmol TE/g | –
– | – | CC(=O)SC(C)=O [Compound 3, acetyl sulfide] | 1.3 ± 0.2 μmol TE/g | –
30.5 ± 1.02 mM | 36 ± 2.23 mM | O=C(O)c1cc(O)ccc1O [Compound 4, gentisic acid] | 23113.1 ± 1057.9 μmol TE/g | –
– | – | COc1ccc(C(=O)O)cc1O [Compound 5, 3-hydroxy-4-methoxybenzoic acid] | 20705.9 ± 835.9 μmol TE/g | solubility in 30% (v/v) ethanol-water system [3]: cannot be dissolved
– | – | Cc1cncc(CC(O)C(O)CO)n1 (stereo not shown) [Compound 9, 2-methyl-6-(2′,3′,4′-trihydroxybutyl)-pyrazine] | 78.0 ± 2.9 μmol TE/g | –
– | – | COc1cc(OC2OC(CO)C(O)C(O)C2O)cc(O)c1OC [Compound 10, 3-hydroxy-4,5-dimethoxyphenyl-β-D-glucopyranoside] | 4177.5 ± 324.2 μmol TE/g | –
– | – | COc1ccc(OC2OC(CO)C(O)C(O)C2O)cc1OC [Compound 11, 3,4-dimethoxyphenyl-O-β-D-glucopyranoside] | 56.5 ± 2.8 μmol TE/g | –
– | – | COc1cc(OC)c(OC2OC(CO)C(O)C(O)C2O)c(OC)c1 [Compound 12, 2,4,6-trimethoxyphenyl-1-O-β-D-glucopyranoside] | 80.2 ± 2.3 μmol TE/g | –
20.3 ± 0.39 mM | > 100 mM | COc1cc(C(=O)O)cc(OC)c1O [Compound 13, syringic acid] | 1879.9 ± 44.7 μmol TE/g | decrease of ORAC antioxidant activity relative to 4-hydroxybenzoic acid [1]: 7.91 folds
– | – | COc1ccc(OC)cc1 [Compound 14, 1,4-dimethoxybenzene] | 2154.2 ± 183.1 μmol TE/g | –
– | – | O=c1c(O)c(-c2ccc(O)c(O)c2)oc2cc(O)cc(O)c12 [Quercetin, quercetin, reference compound] | – | EC50 (HepG2 cells; PBS wash protocol): 13 µM; EC50 (HepG2 cells; no PBS wash protocol): 5.09 µM

Structure (SMILES) | IC50 [2] | IC50 (α-amylase (EC3.2.1.1)) | ORAC value [1] | also measured
O=C(O)c1ccc(O)cc1 [Compound 7, 4-hydroxybenzoic acid] | 34.1 ± 1.51 mM | > 100 mM | 14874.9 ± 599.2 μmol TE/g | α-amylase inhibition (in words) (α-amylase (EC3.2.1.1)): did not show any inhibition effect
COc1cc(C(=O)O)ccc1O [Compound 8, vanillic acid] | 29.7 ± 0.33 mM | > 100 mM | 12945.8 ± 1419.3 μmol TE/g | decrease of ORAC antioxidant activity relative to 4-hydroxybenzoic acid [1]: 1.15 folds; cellular uptake rate (CAA value of the PBS wash/no PBS wash × 100%) (HepG2 cells; HepG2 cells): 71.53%; CAA value (HepG2 cells; HepG2 cells, PBS wash protocol): 6.18 μmol QE/100 μmol and 6.18 ± 0.09 μmol QE/100 μmol; CAA value (HepG2 cells; HepG2 cells, no PBS wash protocol): 8.64 μmol QE/100 μmol and 8.64 ± 0.53 μmol QE/100 μmol; EC50 (HepG2 cells; PBS wash protocol): 210 ± 3.22 µM; EC50 (HepG2 cells; no PBS wash protocol): 59.1 ± 3.74 µM
